Columns and labels:
[1] = system: human coronary endothelial cells; assay: Nitrite measurements from media of coronary endothelial cells; assay type: cell-based
Procedure: (§1) Primary coronary endothelial cells (Lonza) were cultured on plastic 6-well dishes as previously described^9. For studies involving basal NO release, endothelial cells were incubated with 5 μmol/L of Scr X or Hb α X for 20 minutes followed by medium collection and nitrite measurements as described below. For bradykinin studies, coronary endothelial cells were grown to confluence followed by serum starvation overnight in a cocktail of Lonza EGM-2 medium supplemented with EGM-2 bullet kit and Opti MEM reduced growth medium using a ratio of 1:9 respectively. The next day, endothelial cells were incubated with Scr X or Hb α X peptide for 20 minutes followed by the addition of 10 μM bradykinin (Sigma) for 5 minutes followed by medium collection for nitrite measurements as described below.
Quantitation of nitrite in culture medium was measured by chemiluminescence using a Sievers nitric oxide analyzer according to manufacturer's instructions. Quantitation of peaks was analyzed using Origin Pro 6.0 as previously described^9.

[2] = Blood pressure by radio telemetry, C57BL/6 mice; assay type: in vivo, mouse; conditions: single bolus 0.125 mg/kg intraperitoneal
Procedure: Blood pressure was measured in conscious wildtype or eNOS^−/− mice under unrestrained conditions using implanted radio telemetry units. Continuous blood pressure measurements were recorded using Dataquest A.R.T. 20 software (DSI). To do so, mice were anesthetized with isoflurane and the catheters (TA11PA-C10, Data Sciences International (DSI)) were implanted in the left carotid artery. The catheter was tunneled through to the radiotransmitter, which was placed in a subcutaneous pouch along the flank. Mice were allowed to recover for seven days after surgery to regain normal circadian rhythms before arterial pressure measurements and experiments were initiated. Thirty minutes prior to peptide injection, continuous blood pressure readings were recorded. Then, a bolus injection of Scr X or Hb α X peptide, or saline was administered via an intraperitoneal injection at 0.125 mg/kg. One hour post-injection, blood pressure was recorded for a 30 minute duration. The change in blood pressure was calculated by subtracting the average pre injection blood pressure from the average post-injection blood pressure.

[3] = system: eNOS phosphorylation on serine 1177; assay: Western blot of pS1177 eNOS in coronary endothelial cells; assay type: cell-based, human; conditions: 5 μmol/L peptide, 20 minutes
Procedure: as §1
Endothelial cells were harvested in lysis buffer, sonicated and subjected to electrophoresis using 10% Bis-Tris gels (Invitrogen) as previously described^13. Proteins were transferred to nitrocellulose, incubated with phospho-eNOS S1177 (BD Biosciences) or total eNOS (Sigma) and visualized and quantitated using Li-Cor Odyssey Imager as previously described^14.

thoracodorsal arteries [4] = assay: cGMP assay on thoracodorsal arteries; parameters: species or system mouse
Procedure: Isolated thoracodorsal arteries were cannulated and pressurized to 80 mmHg as previously described^13. Arteries were perfused with 5 μM Scr X or Hb α X with addition of 0.5 mmol/L of the phosphodiesterase inhibitor 3-isobutyl-1-methylxanthine (IBMX) (all conditions) or 100 μmol/L the nitric oxide synthase inhibitor L-NG-Nitroarginine Methyl Ester (L-NAME) for 20 minutes. Arteries were then stimulated with 50 μM phenylephrine for 10 minutes and immediately immersed in lysis buffer provided in the cGMP XP assay Kit (Cell Signaling) according to manufactures instructions. Briefly, a competition enzyme-linked immunoassay was used to generate a standard curve of known cGMP concentrations followed by calculating cGMP concentrations of experimental samples. The cGMP concentration in experimental samples was normalized to total protein concentration.

thoracodorsal arteries [5] = assay: Pressure myography on thoracodorsal arteries, phenylephrine dose response with peptides; parameters: species or system mouse

Peptide LSFPTTKTYF (SEQ ID NO:2), first ten amino acids of the Hb α sequence, with HIV-tat tag YGRKKRRQRRR at the N-terminus [Hb α X]
Nitrite accumulation following stimulation with bradykinin ([1]; 10 μM bradykinin, 5 minutes, Scr X vs Hb α X): no change | Accumulation of nitrite in the culture medium, basal ([1]; unstimulated cells): no differences | Systolic, diastolic and mean arterial blood pressure [2]: significant decrease | Basal eNOS phosphorylation on serine 1177 [3]: no differences | cGMP accumulation with L-NAME (thoracodorsal arteries [4]; phenylephrine stimulation plus L-NAME): reversed | cGMP accumulation (thoracodorsal arteries [4]; phenylephrine stimulation, compared to Scr X peptide): significant increase | Constriction in phenylephrine dose response curves (thoracodorsal arteries [5]; compared to untreated arteries): significant decrease in constriction | Emax, vascular reactivity dose response curves (thoracodorsal arteries [5]; phenylephrine dose response, thoracodorsal arteries perfused with peptide): 68.0 ± 5.3 % initial diameter | Constriction in phenylephrine dose response curves with L-NAME (thoracodorsal arteries [5]; plus L-NAME 100 μmol/L): reversed

Source: patent publication US10253069B2, “Compositions and methods for regulating arterial tone” (University of Virginia Patent Foundation, priority 2012, dated 2019)
